{"source": "patent US20250144107A1", "about": "“USE OF A PIKFYVE INHIBITOR IN COMBINATION WITH IMMUNOTHERAPY” (The Regents of the University of Michigan, priority 2023, published 2025)", "key": {"KPC1361 cells": {"test_system": "KPC1361 cells", "assay": "MHC-I surface expression in Pikfyve-wildtype, Pikfyve-null, Atg5-null or Atg7-null cells", "assay_type": "cell-based, mouse", "settings": "Pikfyve-wildtype cells, autophagy inhibition", "source_text": "FIG. 1F (Left) is line graphs of flow cytometry measuring MHC-I surface expression in KPC1361 cells with or without Pikfyve KO, treated with DMSO, Bafilomycin, chloroquine, Apilimod, or ESK981; (Right) is bar graphs of quantification of flow cytometry measuring MHC-I surface expression in KPC1361 cells with or without Pikfyve KO, treated with DMSO, Bafilomycin, chloroquine, Apilimod, or ESK981.\nFIG. 1G (Left) is a line graph of flow cytometry measuring MHC-I surface expression in KPC1361 cells with non-targeting single-guide RNA (control), or single-guide RNAs depleting Atg5 or Atg7, treated with DMSO or Apilimod; (Right) is a bar graph of quantification of flow cytometry measuring MHC-I surface expression in KPC1361 cells with non-targeting single-guide RNA (control), or single-guide RNAs depleting Atg5 or Atg7, treated with DMSO or Apilimod.\nCancer cells or the OVA-expressing cancer cells treated in vitro were harvested from dishes, resuspended in buffer MACS (PBS containing 2% FBS and 2 mM EDTA), and stained with Zombie NIR™ Fixable Viability kit (BioLegend: #423106) and fluorophore-conjugated antibody against MHC-I or PE-conjugated antibody against SIINFEKL bound H-2Kb (BioLegend; catalog #141604), respectively. The cells were next washed twice with 1 ml MACS and fixed with 2% paraformaldehyde in PBS for 15 minutes at room temperature. The cells were then subjected to the flow cytometer (SONY SH800S) for measuring surface expression of MHC-I or SIINFEKL bound H-2Kb, respectively. Antibodies used in this study include anti-H-2Kb (BD Biosciences; catalog #553570) and anti-H-2Db (28-14-8; Thermo Fisher Scientific; catalog #12-5999-82) for KPC1361 and B16-F10, anti-H-2Kd (BD Biosciences; catalog #562004) and anti-H-2Dd (BD Biosciences; catalog #553580) for 4T1, anti-H-2Kq (BD Biosciences; catalog #742296) and anti-H-2Dq/H-2Lq (BD Biosciences; catalog #744853) for MyC-CaP, and anti-HLA-A,B,C (clone w6/32; BioLegend; catalog #311406) for human cancer cells."}, "B16F10-OVA tumors": {"test_system": "B16F10-OVA tumors", "assay": "B16F10-OVA tumor model with PolyI:C adjuvant", "assay_type": "in vivo, mice", "settings": "treatment after inoculation, each agent alone", "description": "FIG. 16F is a series of four line graphs of the Individual growth curves of subcutaneous B16F10-OVA tumor volume following 21 days of pre-treatment with vehicle versus apilimod, 30 mg/kg daily, with or without subcutaneous injection of water versus PolyI:C, 100 μg on Day 1 and Day 14.\nFIG. 16H is a series of four line graphs of the Individual growth curves of subcutaneous B16F10-OVA tumor volume in mice treated with vehicle or apilimod, 30 mg/kg daily, with or without a subcutaneous injection of water versus PolyI:C, 100 μg once weekly.\nFIG. 26I is a line graph of the subcutaneous tumor volume of B16F10-OVA tumors following 21 days of pre-treatment with vehicle versus apilimod, 30 mg/kg×5 days/week, with or without subcutaneous injection of water versus PolyI:C, 100 μg on Day 1 and Day 14.\nFIG. 26J is a line graph of the subcutaneous tumor volume of B16F10-OVA tumors in mice treated with vehicle or apilimod, 30 mg/kg×5 days/week, with or without subcutaneous injection of water versus PolyI:C, 100 μg once weekly."}, "cDCs": {"test_system": "cDCs", "assay": "Phenotype of cultured cDCs (flow cytometry, western blot)", "assay_type": "cell-based, mice", "settings": "DCs in vitro, each agent", "description": "FIG. 13G (Left) is a line graph of the relative median fluorescent intensity of the surface MHC-I on DMSO or apilimod-treated cDCs treated for 20 hours after 6 days of culture. FIG. 13G (Right) is a box and whisker plot of the surface MHC-I on DMSO or apilimod-treated cDCs treated for 20 hours after 6 days of culture\nFIG. 13H a western blot showing the total vinculin, loading control, and total MHC-I in DMSO or apilimod-treated, 20 hours, cDC lysates after 6 days of culture.\nFIG. 13K (Left) is a line graph of the relative median fluorescent intensity of the surface MHC-II on DMSO or apilimod-treated, 20 hours, cDCs treated after 6 days of culture. FIG. 13K (Right) is a box and whisker plot of the surface MHC-II on DMSO or apilimod-treated, 20 hours, cDCs treated after 6 days of culture.\nFIG. 13L a western blot showing the total vinculin, loading control, and total MHC-II in DMSO or apilimod-treated, 20 hours, cDC lysates after 6 days of culture.\nFIG. 13N a western blot showing the total histone H3, loading control, and total CD80 and CD86 in apilimod-treated, 20 hours, PIKfyve WT vs. KO cDC lysates after 6 days of culture.\nFIG. 13P is a series of six scatter plots of surface CD80 and CD86 on DMSO or apilimod-treated cDCs, with or without 20 hours of PolyI:C, 50 μg/ml, or lipopolysaccharide (LPS), 50 ng/ml, treatment after 6 days of culture.\nFIG. 13R a western blot showing the total vinculin, loading control, and total CD40 in DMSO or apilimod-treated, 20 hours, cDC lysates treated with or without additional LPS, 50 ng/ml, after 6 days of culture day 6.\nFIG. 19B is a line graph of representative density plot of median fluorescent intensity of surface XCR1 in DMSO or apilimod-treated, 20 hours, cDCs after 6 days of culture.\nFIG. 26G is a line graph of the relative median fluorescent intensity of the surface MHC-I, H2-kb, H2-kd, on DMSO or apilimod-treated cDCs with or without PolyI:C, 50 μg/ml or LPS, 50 ng/ml, treatment, 20 hours, after 6 days of culture.\nFIG. 26H is a line graph of the relative median fluorescent intensity of the surface MHC-II, MHC-IA-IE, on DMSO or apilimod-treated cDCs with or without PolyI:C, 50 μg/ml or LPS, 50 ng/ml, treatment, 20 hours, after 6 days of culture."}}, "data": [{"compound": "CCN(CC)CCCC(C)Nc1ccnc2cc(Cl)ccc12", "note": "(centres unmarked) [chloroquine]", "values": [{"measurement": "MHC-I surface expression", "setting": "KPC1361 cells", "value": "induced"}]}, {"compound": "PolyI:C", "values": [{"measurement": "tumor growth", "setting": "B16F10-OVA tumors", "value": "modest tumor growth inhibition"}, {"measurement": "MHC-I and MHC-II expression", "setting": "cDCs", "value": "stimulated"}]}, {"compound": "bafilomycin", "values": [{"measurement": "MHC-I surface expression", "setting": "KPC1361 cells", "value": "induced"}]}, {"compound": "lipopolysaccharide [LPS]", "values": [{"measurement": "MHC-I and MHC-II expression", "setting": "cDCs", "value": "stimulated"}]}]}
